From patent US5001158A, “Nitrosoureas compounds preparation thereof and utilization thereof in anticancerous” (Centre National de la Recherche Scientifique, priority 1990, dated 1991)

Key:
[1] = Plasma concentrations of A1 and A2 after oral administration, rats; assay type: in vivo; conditions: rat, n = 5; for concentration at 1.5 h: 1 H 30 MIN; for concentration: 3 H; for concentration at 0.25 h: 15 MIN; for concentration at 0.5 h: 30 MIN; for concentration at 0.75 h: 45 MIN
Method: (§1) The plasma absorption and clearance kinetics of the products A1 and A2 according to the invention were studied on different animal species after oral administration. A mixture A1 A2 in the proportions 70%/30% was used so as to be able to make a comparison with CNCC. The mixture A1 A2 and the CNCC were administered at equivalent doses and the plasma concentrations of A1 and A2 were measured as a function of time. cl (a) Experimental protocol
(§2) A solution of the mixture A1 A2 in distilled water is administered by stomach tube at a dose of 574 mg/m^2. A suspension of CNCC in olive oil is administered at a dose of 500 mg/m^2, also by stomach tube.
(§3) The blood, taken by cardiac puncture, is centrifuged rapidly at 4° C. The plasma (1 ml) is deposited on a cartridge of Extrelut® and extraction is carried out with 6 ml of methylene chloride. After evaporation, the dry extract is taken up in 150 μl of methylene chloride for chromatographic analysis.
(§4) Analysis of the plasma extracts for measuring the concentrations of A1 and A2 was performed by high performance liquid chromatography using the following technology:
(§5) Detector: Pye Unicam spectrophotometer (Philips)λ250 nm.
(§6) Elution carried out by means of a linear gradient ranging from methylene chloride 99.6%/ethanol 0.4% to methylene chloride 95%/ethanol 5% in 15 minutes

[2] = Plasma concentrations of A1 and A2 after oral administration, rabbits; assay type: in vivo; conditions: rabbit, n = 5; for concentration at 1.5 h: 1 H 30 MIN; for concentration: 3 H; for concentration at 4.5 h: 4 H 30 MIN; for concentration at 0.25 h: 15 MIN; for concentration at 0.5 h: 30 MIN; for concentration at 0.75 h: 45 MIN
Method: as §1, §2, §3, §4, §5, §6

leukemia L 1210 = experiment: Antitumoral activity of A1 and A2 on leukemia L 1210 grafted i.p. in mice (ICIG); assay type: in vivo, mice (B6 D2 F1 OLA)
Method: This activity was also studied on mice carrying leukemia L 1210 grafted i.p. This experimental tumor is the one most frequently used in the primary screening of cytostatic drugs.
These tests were conducted in parallel in two laboratories: at Unit 71 of the Institut National de la Sante et de la Recberche Mediecale (INSERM), ClermontFerrand, and at the Institut de Cancerologie et d' Immunogenetique (ICIG), Villejuif.
On day D:0, three-month-old male B6 D2 F1 mice received 10^5 cells of the leukemia strain L 1210 by intraperitoneal administration. The animals are divided up into groups of 8 to 10 animals for the control groups and 6 to 8 animals for the treated groups. On days D:1, D:5 and D:9, the animals receive the treatment at different doses by intraperitoneal or intravenous administration. The CNCC is administered as a suspension in olive oil. The products according to the invention are administered in physiological serum. The mortality is recorded every day. The survival median was determined for the treated animals and the control animals. The results are considered to be positive if the index I= [formula] is greater than 125.
The value .infin. means that 50% to 100% of the animals have survived to day D:90.
The cytostatic activity oi A1 and A2 on leukemia L 1210 was evaluated on B6 D2 F1 OLA mice at ICIG.
ICIG also studied the antitumoral activity of each isomer A1 and A2, separately administered intravenously, on leukemia L 1210. […] Comparison of the active doses with those of CNCC is impossible because of the insolubility of CNCC, as mentioned previously.

[3] = Plasma concentrations of A1 and A2 after oral administration, mice; assay type: in vivo; conditions: mouse, n = 10; for concentration at 1.5 h: 1 H 30 MIN; for concentration: 3 H; for concentration at 4.5 h: 4 H 30 MIN; for concentration at 0.25 h: 15 MIN; for concentration at 0.5 h: 30 MIN; for concentration at 0.75 h: 45 MIN
Method: as §1, §2, §3, §4, §5, §6

[4] = Pharmacokinetic comparison of mixture A1 A2 with CNCC, all animal species; assay type: in vivo, mice, rats and rabbits; conditions: p.o.
Method: as §1, §2, §3, §4
The plasma concentrations of A1 and A2 after oral administration of either the mixture A1 A2 or CNCC to mice, rats and rabbits are reported in Table V.

[5] = after mixture A1 A2 574 mg/m^2 p.o.

For `C[S+]([O-])CCNC(=O)N(CCCl)N=O` (stereo not drawn) [Compound A2], the concentration at 1.5 h ([1]; after CNCC 500 mg/m^2 p.o.) was 11.4 µM, the concentration at 1 h ([1]; after CNCC 500 mg/m^2 p.o.) was 8.1 µM and the concentration at 2 h ([1]; after CNCC 500 mg/m^2 p.o.) was 6.4 µM. For the same molecule, the concentration ([1]; after CNCC 500 mg/m^2 p.o.) was 6.5 µM, the concentration at 4.5 h ([1]; after CNCC 500 mg/m^2 p.o., 4 H 30 MIN) was 2200 nM and the concentration at 5 min ([1]; after CNCC 500 mg/m^2 p.o.) was 0.9 µM. The concentration at 0.25 h ([1]; after CNCC 500 mg/m^2 p.o.) was 3.2 µM, the concentration at 0.5 h ([1]; after CNCC 500 mg/m^2 p.o.) was 5.4 µM and the concentration at 0.75 h ([1]; after CNCC 500 mg/m^2 p.o.) was 7.2 µM. It also gave a concentration at 1.5 h [1, 5] of 12.9 µM, a concentration at 1 h [1, 5] of 14.2 µM and a concentration at 2 h [1, 5] of 7.8 µM. The concentration [1, 5] was 2.9 µM, the concentration at 5 min [1, 5] was 8.5 µM and the concentration at 0.25 h [1, 5] was 17.7 µM. It also gave a concentration at 0.5 h [1, 5] of 22.5 µM, a concentration at 0.75 h [1, 5] of 11.4 µM and a concentration at 1.5 h ([2]; after CNCC 500 mg/m^2 p.o.) of 4.2 µM. For the same molecule, the concentration at 2 h ([2]; after CNCC 500 mg/m^2 p.o.) was 3.5 µM, the concentration ([2]; after CNCC 500 mg/m^2 p.o.) was 2000 nM and the concentration at 4.5 h ([2]; after CNCC 500 mg/m^2 p.o.) was 1000 nM. The concentration at 5 min ([2]; after CNCC 500 mg/m^2 p.o.) was 1.8 µM, the concentration at 0.25 h ([2]; after CNCC 500 mg/m^2 p.o.) was 5 µM and the concentration at 0.5 h ([2]; after CNCC 500 mg/m^2 p.o.) was 6 µM. The concentration at 0.75 h ([2]; after CNCC 500 mg/m^2 p.o.) was 5.5 µM, the concentration at 1.5 h [2, 5] was 9.2 µM and the concentration at 1 h ([2]; after mixture A1 A2 574 mg/m^2 p.o., 1 H) was 14.2 µM. The concentration at 2 h [2, 5] was 6.3 µM, the concentration [2, 5] was 2900 nM and the concentration at 4.5 h [2, 5] was 700 nM. It also gave a concentration at 5 min [2, 5] of 11 µM, a concentration at 0.25 h [2, 5] of 11.7 µM and a concentration at 0.5 h [2, 5] of 16.5 µM. For the same molecule, the concentration at 0.75 h [2, 5] was 15 µM, the “T/C × 100” value (leukemia L 1210; 5 mg/kg i.v.) was “.infin. (50% to 100% of the animals have survived to day D:90)” and the “T/C × 100” value (leukemia L 1210; 10 mg/kg i.v.) was “.infin. (50% to 100% of the animals have survived to day D:90)”. The “interval between doses for maximum efficacy (IDME)” value (leukemia L 1210; i.v.) was “presence of an IDME”, the “percentage of mice surviving to day D:100 (in words)” value (leukemia L 1210; i.v.) was “high percentage” and the “antitumoral activity (in words)” value (leukemia L 1210; i.v., isomers separately) was “high activity”. It also gave a concentration at 1.5 h ([3]; after CNCC 500 mg/m^2 p.o.) of 12.7 µM, a concentration at 1 h ([3]; after CNCC 500 mg/m^2 p.o.) of 19 µM and a concentration at 2 h ([3]; after CNCC 500 mg/m^2 p.o.) of 9.9 µM. It also gave a concentration ([3]; after CNCC 500 mg/m^2 p.o.) of 6.7 µM, a concentration at 4.5 h ([3]; after CNCC 500 mg/m^2 p.o.) of 3500 nM and a concentration at 5 min ([3]; after CNCC 500 mg/m^2 p.o.) of 5.3 µM. The concentration at 0.25 h ([3]; after CNCC 500 mg/m^2 p.o.) was 13.2 µM, the concentration at 0.5 h ([3]; after CNCC 500 mg/m^2 p.o.) was 35.7 µM and the concentration at 0.75 h ([3]; after CNCC 500 mg/m^2 p.o.) was 16.5 µM. For the same molecule, the concentration at 1.5 h [3, 5] was 10.8 µM, the concentration at 1 h [3, 5] was 29.9 µM and the concentration at 2 h [3, 5] was 6.3 µM. The concentration [3, 5] was 2.9 µM, the concentration at 4.5 h [3, 5] was 900 nM and the concentration at 5 min [3, 5] was 83 µM. For the same molecule, the concentration at 0.25 h [3, 5] was 81.5 µM, the concentration at 0.5 h [3, 5] was 66.3 µM and the concentration at 0.75 h [3, 5] was 43.7 µM. The “bioavailability compared with CNCC (in words)” value [4] was “greater than that of CNCC”, the “plasma concentrations after A1 A2 compared with after CNCC (in words)” value ([4]; equivalent doses, whatever the animal species) was “much higher” and the “plasma concentration after A1 A2 compared with after CNCC (in words)” value ([4]; preliminary data) was “considerably greater”.
